Measured values: patent US20240239790A1, “7-Morpholino-1,6-Naphthyridin-5-yl Derivatives and Pharmaceutical Compositions Thereof Useful as DNA-PK Inhibitor” (adMare Therapeutics Society, priority 2021, published 2024)
Like-named read-outs stand apart in the source and are kept apart here.

Key:
[1] = molecular target: T1, DNA-PK (Homo sapiens, UniProt P78527); test: DNA-PK Assay for Biochemical Enzymatic Inhibition (ADP Glo Kinase assay); details: DNA-PK enzyme, Table 1
T1 construct: purchased Invitrogen PR9107A
Summary of the method: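 Human DNA-PK (25 ng) preincubated 15 min with compounds (ten three-fold dilutions) in HEPES pH 7.5, MgCl2, KCl, calf thymus DNA buffer, then substrate 434.4 μM and ATP 64.4 μM (final) for 60 min at room temperature. ADP-Glo luminescence; percent inhibition fitted by four-parameter regression for IC50.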

[2] = test system: pDNA-PK induction in HCT116 tumour spheroids; test: Multicellular tumour spheroid + radiation, pDNA-PK (ser2056) inhibition, immunohistochemical endpoint, HCT116; format: cell-based; details: Homo sapiens, HCT-116, 20 Gy, 2 hours following radiation, 20% O2
Summary of the method: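 HCT116 spheroids (~0.5 mm) in MEM/10% FBS, 20% O2, 37° C., pre-incubated 1 h with compound (10 or 5 μM down to 3.5 nM), irradiated 20 Gy, then 2 h further with compound. Cryosections immunostained for pDNA-PK ser2056; EC50 is concentration halving radiation-induced pDNA-PK.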

[3] = Hepatocyte Stability Assay, human hepatocytes; format: in vitro ADME; details: for hepatocyte CLint at 1 uM: both sexes, cryopreserved hepatocytes, pH 7.3, human hepatocytes 0.7 million cells per mL, 1 uM compound; for Hepatocyte Stability Human % rem. 120 min: human hepatocytes
Method: Cryopreserved mouse hepatocytes were obtained from a pool of 10 or more male CD-1 mice. Cryopreserved human hepatocytes were obtained from a pool of 10 or more donors of mixed gender. Final hepatocyte density was 0.7 million viable cells per mL and test compound concentration was 1 uM with a maximum of 0.01% DMSO. Cryopreserved hepatocytes were thawed, washed, and resuspended in Krebs-Heinslet buffer (pH 7.3). The reaction was initiated by adding the test compound into cell suspension and incubated for 0, […], 1, 1.5, and 2 h, respectively, at 37° C./5% C02. The reaction was stopped by adding acetonitrile into the incubation mixture. Samples were then mixed, transferred completely to another 96-well plate, and centrifuged. Supernatants were used for HPLC-MS/MS analysis. […] Peak areas corresponding to the test compound were recorded.

[4] = Example 9 Study 2, read-out: Spheroid Cell line: HCT116 Immunohistochemical endpoint pDNA-PK inhibition EC50
[5] = Spheroid, Cell Line: HCT115 (so in the source), Example 7, read-out: EC50, Immunohistochemical endpoint, pDNA-PK inhibition

SMILES	IC50 [1]	EC50 [2, 4]	EC50 [2, 5]	hepatocyte CLint at 1 uM [3]	Hepatocyte Stability Human % rem. 120 min [3]
Cn1c(=O)[nH]c2cnc(N[C@H]3CC[C@@H](Oc4nc(N5CCOCC5)cc5ncccc45)CC3)nc21 [Compound 100, 9-Methyl-2-(((1s,4s)-4-((7-morpholino-1,6-naphthyridin-5-yl)oxy)cyclohexyl)amino)-7,9-dihydro-8H-purin-8-one]	< 0.5 nM	10 to 500 nM	10 to 500 nM	> 8.2 µL/min/1e6 cells	E (% remaining = 0-25%)
Cn1c(=O)n(C)c2nc(N[C@H]3CC[C@@H](Oc4nc(N5CCOCC5)cc5ncccc45)CC3)ncc21 [Compound 101, 7,9-Dimethyl-2-(((1s,4s)-4-((7-morpholino-1,6-naphthyridin-5-yl)oxy)cyclohexyl)amino)-7,9-dihydro-8H-purin-8-one]	< 0.5 nM	10 to 500 nM	10 to 500 nM	> 8.2 µL/min/1e6 cells	F (% remaining = 25-50%)
CN(C)C(=O)Cn1c(=O)n(C)c2nc(N[C@H]3CC[C@@H](Oc4nc(N5CCOCC5)cc5ncccc45)CC3)ncc21 [Compound 102, N,N-Dimethyl-2-(9-methyl-2-(((1s,4s)-4-((7-morpholino-1,6-naphthyridin-5-yl)oxy)cyclohexyl)amino)-8-oxo-8,9-dihydro-7H-purin-7-yl)acetamide]	< 0.5 nM	10 to 500 nM	10 to 500 nM	< 8.2 µL/min/1e6 cells	G (% remaining = 50-75%)
CN(C)C(=O)COc1ccc(C(=O)N[C@H]2CC[C@@H](Oc3nc(N4CCOCC4)cc4ncccc34)CC2)cn1 [Compound 117, 6-(2-(dimethylamino)-2-oxoethoxy)-N-((1s,4s)-4-((7-morpholino-1,6-naphthyridin-5-yl)oxy)cyclohexyl)nicotinamide]	0.5 to 1 nM	500 to 1000 nM	500 to 1000 nM	< 8.2 µL/min/1e6 cells	G (% remaining = 50-75%)
CN(C)C(=O)Cn1ccc(C(=O)N[C@H]2CC[C@@H](Oc3nc(N4CCOCC4)cc4ncccc34)CC2)c1 [Compound 141, 1-(2-(dimethylamino)-2-oxoethyl)-N-((1s,4s)-4-((7-morpholino-1,6-naphthyridin-5-yl)oxy)cyclohexyl)-1H-pyrrole-3-carboxamide]	< 0.5 nM		10 to 500 nM	< 8.2 µL/min/1e6 cells	G (% remaining = 50-75%)
CS(=O)(=O)c1cnc2cc(N3CCOCC3)nc(O[C@H]3CC[C@@H](Nc4ncccn4)CC3)c2c1 [Compound 200b, N-((1s,4s)-4-((3-(methylsulfonyl)-7-morpholino-1,6-naphthyridin-5-yl)oxy)cyclohexyl)pyrimidin-2-amine]	< 0.5 nM	1000 to 10000 nM	1000 to 10000 nM	< 8.2 µL/min/1e6 cells	G (% remaining = 50-75%)
CS(=O)(=O)c1cnc2cc(N3CCOCC3)nc(O[C@H]3CC[C@@H](Nc4ncc(OCC(=O)N5CCOCC5)cn4)CC3)c2c1 [Compound 204a, 2-((2-(((1s,4s)-4-((3-(methylsulfonyl)-7-morpholino-1,6-naphthyridin-5-yl)oxy)cyclohexyl)amino)pyrimidin-5-yl)oxy)-1-morpholinoethan-1-one]	1 to 10 nM	1000 to 10000 nM	1000 to 10000 nM	< 8.2 µL/min/1e6 cells	H (% remaining = 75-100%)
CS(=O)(=O)c1cnc2cc(N3CCOCC3)nc(O[C@H]3CC[C@@H](Nc4ncnc5ccoc45)CC3)c2c1 [Compound 204b, N-((1s,4s)-4-((3-(methylsulfonyl)-7-morpholino-1,6-naphthyridin-5-yl)oxy)cyclohexyl)furo[3,2-d]pyrimidin-4-amine]	< 0.5 nM	10 to 500 nM	10 to 500 nM	< 8.2 µL/min/1e6 cells	G (% remaining = 50-75%)
CS(=O)(=O)c1cnc2cc(N3CCOCC3)nc(O[C@H]3CC[C@@H](NC(=O)c4ncco4)CC3)c2c1 [Compound 204c, N-((1s,4s)-4-((3-(methylsulfonyl)-7-morpholino-1,6-naphthyridin-5-yl)oxy)cyclohexyl)oxazole-2-carboxamide]	1 to 10 nM	1000 to 10000 nM	1000 to 10000 nM	< 8.2 µL/min/1e6 cells	H (% remaining = 75-100%)

Second part, the molecule after the results:

IC50 [1]	EC50 [2, 4]	EC50 [2, 5]	hepatocyte CLint at 1 uM [3]	Hepatocyte Stability Human % rem. 120 min [3]	SMILES
< 0.5 nM	10 to 500 nM	10 to 500 nM	> 8.2 µL/min/1e6 cells	F (% remaining = 25-50%)	O=C(Cn1c(=O)n(C2CCOCC2)c2nc(N[C@H]3CC[C@@H](Oc4nc(N5CCOCC5)cc5ncccc45)CC3)ncc21)N1CCOCC1 [Compound 98, 2-(((1s,4s)-4-((7-Morpholino-1,6-naphthyridin-5-yl)oxy)cyclohexyl)amino)-7-(2-morpholino-2-oxoethyl)-9-(tetrahydro-2H-pyran-4-yl)-7,9-dihydro-8H-purin-8-one]
< 0.5 nM	10 to 500 nM	10 to 500 nM	> 8.2 µL/min/1e6 cells	F (% remaining = 25-50%)	O=C(Cn1c(=O)n(C2CCOCC2)c2nc(N[C@H]3CC[C@@H](Oc4nc(N5CCOCC5)cc5ncccc45)CC3)ncc21)N1CCC1 [Compound 99, 7-(2-(Azetidin-1-yl)-2-oxoethyl)-2-(((1s,4s)-4-((7-morpholino-1,6-naphthyridin-5-yl)oxy)cyclohexyl)amino)-9-(tetrahydro-2H-pyran-4-yl)-7,9-dihydro-8H-purin-8-one]
< 0.5 nM	10 to 500 nM	10 to 500 nM	< 8.2 µL/min/1e6 cells	H (% remaining = 75-100%)	CN(C)C(=O)COc1cnc(N[C@H]2CC[C@@H](Oc3nc(N4CCOCC4)cc4ncc(NS(C)(=O)=O)cc34)CC2)nc1 [Compound 182, N,N-dimethyl-2-((2-(((1s,4s)-4-((3-(methylsulfonamido)-7-morpholino-1,6-naphthyridin-5-yl)oxy)cyclohexyl)amino)pyrimidin-5-yl)oxy)acetamide]
< 0.5 nM	10 to 500 nM	10 to 500 nM	< 8.2 µL/min/1e6 cells	H (% remaining = 75-100%)	O=S(=O)(CF)Nc1cnc2cc(N3CCOCC3)nc(O[C@H]3CC[C@@H](Nc4ncccn4)CC3)c2c1 [Compound 192, 1-fluoro-N-(7-morpholino-5-(((1s,4s)-4-(pyrimidin-2-ylamino)cyclohexyl)oxy)-1,6-naphthyridin-3-yl)methanesulfonamide]
0.5 to 1 nM	1000 to 10000 nM	1000 to 10000 nM	< 8.2 µL/min/1e6 cells	G (% remaining = 50-75%)	O=S(=O)(CC(F)F)Nc1cnc2cc(N3CCOCC3)nc(O[C@H]3CC[C@@H](Nc4ncccn4)CC3)c2c1 [Compound 193, 2,2-difluoro-N-(7-morpholino-5-(((1s,4s)-4-(pyrimidin-2-ylamino)cyclohexyl)oxy)-1,6-naphthyridin-3-yl)ethane-1-sulfonamide]
